These are literature values, as cited in patent publication US20090155357A1, “Alcohol Resistant Pharmaceutical Formulations” (priority 2005, published 2009).

The conditions of series [1]: solubility in water.
For series [2] the following is noted: solubility in alcohol.

For `CCCCCCCCCCCCCCCCCC(=O)OCC(O)CO` (stereo not shown) [Glyceryl Monostearate], the Water entry in series [1] is given as “I”. Besides, the Alcohol result in series [2] is listed as “I”.
As for `CCCCCCCCCCCCCCCC(=O)OCC(O)CO` (stereo not shown) [Glyceryl Palmitate], the Water entry in series [1] was “I”. Also, the Alcohol entry in series [2] is “I”.
For `[O]=[Mg]` [Magnesium Oxide], the Water result in series [1] is listed as “I”. In series [2], the Alcohol entry was “I”.
With “Dibasic/Tribasic calcium phosphate dihydrate”, the Water result in series [1] is reported as “I”. For the same molecule, the Alcohol result in series [2] is recorded as “I”.
Take Glyceryl Behanate: the Water result in series [1] is listed as “I”. Further, the Alcohol result in series [2] is on record as “I”.
